Data: patent US9018172B2, “Modification of peptides via SNAr reactions of thiols with fluorinated aromatics” (Massachusetts Institute of Technology, priority 2012, dated 2015)

Experiments:
[1] = test system: HEK293T cells; assay: Confocal microscopy cell imaging of FITC-labeled peptide uptake; format: cell-based; settings: 5 μM, 4 hours
Experimental: 293T HEK cells were cultured with DMEM with 10% FBS (v/v) in imaging dishes (70K cells/well) in 37° C., 5% CO2 incubator for two days until they are about 70% confluent. Appropriate amounts of peptides 7, 7a, 7b, 8a and 8b dissolved in autoclaved H2O were added to the cells to final concentrations of 5 μM. Peptide 9 was first dissolved in DMSO to make a 200 μM stock and then added to cells to a final concentration of 5 μM. The cells were incubated with the samples for 4 hours at 37° C. and 5% CO2. After incubation, cells were washed 3 times with DPBS and then fixed with 4% formaldehyde in DPBS for 10 minutes. They are then washed 3 times with HBSS and stained with 5 μg/mL wheat germ agglutinin-tetramethylrhodamine conjugate in HBSS for 20 minutes. The cells were subsequently washed with HBSS once and DPBS twice and stained with 5 μg/mL diamidino-2-phenylindole (DAPI) in DPBS for 30 minutes. They were washed 3 times with DPBS and covered in one drop of pri-Gold and cover slide. Images of peptide localization in cells were taken on PerkinElmer Ultraview Spinning Disk Confocal with 30% of its maximum laser power in 488 channel with 500 ms exposure time and 0.5 μm Z-stacking Image processing was done using Volocity software package (PerkinElmer).

[2] = Proteolysis assay with trypsin or chymotrypsin, LC-MS; format: in vitro ADME; settings: isolated enzyme several chymotrypsin trypsin, pH 8.1; after 10 minutes with protease (trypsin/chymotrypsin), 37° C.; read-out: intact peptide observed
Experimental: 100 μL of peptide (100 μM) in phosphate buffer (pH 8.1) was mixed and incubated with 40 μL of the protease solution (trypsin—70 μg/mL; chymotrypsin—50 μg/mL) at 37° C. Aliquots of 35 μL were quenched with 55 μL of 1% TFA solution in MeCN and subjected to LC-MS analysis at 10, 25 and 40 minutes respectively. Peptide concentrations at different time points were quantified by integration of the TIC trace relative to the starting peptide sample. Note, that in the case of experiments with unstapled peptide 7, <1% of the intact peptide was observed after 10 minutes.

[3] = Temperature-dependent melting from CD spectra at 222 nm; format: physicochemical; settings: CD at 222 nm
Experimental: CD measurements were done with Aviv 202 spectrometer using 1 mm quartz cuvette. Peptide solutions were made by dissolving solid samples in 25% acetonitrile/water mixture, CD spectra of 3a and 3b were measured in acetonitrile, CD spectra of affibodies was collected in 10 mM phosphate buffer. Concentration of affibodies was estimated by UV absorbance measurements at 280 nm. Contribution of the perfluorinated staple in 6a on the absorbance value at 280 nm was taken into account (estimated molar extinction coefficient for [—S—C6F4—S-]˜5000 cm^−1M^−1 from UV measurements of solutions of 6 and 6a) in these measurements. Data processing included solvent background correction (subtraction) and adjustment for pathlength and concentration (MRE=[θ]λ=θobs×1/(10 lcn); θobs=measured ellipticity, θ=mean residual ellipticity in deg×cm^2×dmol^−1, 1=pathlength (cm); c=concentration of peptide (M); n=# of amino acids). α-helicities of the peptides were estimated using previously established methods.

| Molecule | cellular uptake (confocal microscopy) [1] | remaining at 10 min [2] [%] | temperature dependent melting properties [3] |
| --- | --- | --- | --- |
| CC[C@H](C)[C@H](NC(=O)CCNC(=S)Nc1ccc(-c2c3ccc(=O)cc-3oc3cc(O)ccc23)c(C(=O)O)c1)C(=O)N[C@H](C(=O)N[C@@H](Cc1ccccc1)C(=O)N[C@@H](CSCC(N)=O)C(=O)N[C@@H](CC(=O)O)C(=O)N[C@@H](CC(C)C)C(=O)N[C@@H](CC(C)C)C(=O)N[C@@H](CSCC(N)=O)C(=O)N[C@@H](Cc1ccc(O)cc1)C(=O)N[C@@H](Cc1ccc(O)cc1)C(=O)NCC(=O)N[C@@H](CCCCN)C(=O)N[C@@H](CCCCN)C(=O)N[C@@H](CCCCN)C(N)=O)[C@@H](C)O [Peptide 7] | no fluorescent positive cells | < 1 |  |
| Affibody 10a: HER-2 affibody with perfluoroaryl staple at Cys42, Cys46 on the C-terminal helix |  |  | not compromised |
